Measurements as given in patent US20230093099A1, “COMPOUNDS AND METHODS OF TREATING CANCERS” (CULLGEN (SHANGHAI), INC., priority 2019, published 2023).

The molecules below were run on RS4;11 cells (assay: Cell viability assay (CellTiter-Glo) in RS4;11 cells). Conditions: Homo sapiens, 72 h; RS4;11 cells; cell viability, 3 days, CellTiter-Glo; read-out: IC50.
Type: cell-based
Procedure, shortened: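 Three-day compound treatment of RS4;11 ALL cells (5000/well, 3-fold dilution series of 8 or 12 points), with IC50 from a nonlinear least-squares fit to CellTiter-Glo viability data.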

**Q.** With `Cc1ncsc1-c1ccc(CNC(=O)[C@@H]2C[C@@H](O)CN2C(=O)[C@@H](NC(=O)CCOCCOCCOCCC(=O)N2CCN(c3ccc(Nc4nc5cccc(-c6ccc(S(C)(=O)=O)cc6)n5n4)cc3)CC2)C(C)(C)C)cc1` [JA-068, (2S,4R)-1-((S)-2-(tert-Butyl)-16-(4-(4-((5-(4-(methylsulfonyl)phenyl)-[1,2,4]triazolo[1,5-a]pyridin-2-yl)amino)phenyl)piperazin-1-yl)-4,16-dioxo-7,10,13-trioxa-3-azahexadecanoyl)-4-hydroxy-N-(4-(4-methylthiazol-5-yl)benzyl)pyrrolidine-2-carboxamide] as the molecule, how does the IC50 read?
**A.** > 10 µM

**Q.** How did the IC50 turn out when `Cc1ncsc1-c1ccc(CNC(=O)[C@@H]2C[C@@H](O)CN2C(=O)[C@@H](NC(=O)CCCCNC(=O)CN2CCC(n3cc(-c4cnc5cccc(-c6cc(F)c(CN7CCOCC7)c(F)c6)c5n4)cn3)CC2)C(C)(C)C)cc1` [JA-168, (2S,4R)-1-((S)-2-(5-(2-(4-(4-(8-(3,5-Difluoro-4-(morpholinomethyl)phenyl)quinoxalin-2-yl)-1H-pyrazol-1-yl)piperidin-1-yl)acetamido)pentanamido)-3,3-dimethylbutanoyl)-4-hydroxy-N-(4-(4-methylthiazol-5-yl)benzyl)pyrrolidine-2-carboxamide] was run?
**A.** > 10 µM

**Q.** For `Cc1ncsc1-c1ccc(CNC(=O)[C@@H]2C[C@@H](O)CN2C(=O)[C@@H](NC(=O)CCCCCCNC(=O)CN2CCC(n3cc(-c4cnc5cccc(-c6cc(F)c(CN7CCOCC7)c(F)c6)c5n4)cn3)CC2)C(C)(C)C)cc1` [JA-165, (2S,4R)-1-((S)-2-(7-(2-(4-(4-(8-(3,5-Difluoro-4-(morpholinomethyl)phenyl)quinoxalin-2-yl)-1H-pyrazol-1-yl)piperidin-1-yl)acetamido)heptanamido)-3,3-dimethylbutanoyl)-4-hydroxy-N-(4-(4-methylthiazol-5-yl)benzyl)pyrrolidine-2-carboxamide], which IC50 is on record?
**A.** > 10 µM

**Q.** `Cc1ncsc1-c1ccc(CNC(=O)[C@@H]2C[C@@H](O)CN2C(=O)[C@@H](NC(=O)COCCOCC(=O)N2CCC(n3cc(-c4cnc5cccc(-c6cc(F)c(CN7CCOCC7)c(F)c6)c5n4)cn3)CC2)C(C)(C)C)cc1` [JA-054, (2S,4R)-1-[(2S)-2-[[2-[2-[2-[4-[4-[8-[3,5-Difluoro-4-(morpholinomethyl)phenyl]quinoxalin-2-yl]pyrazol-1-yl]-1-piperidyl]-2-oxo-ethoxy]ethoxy]acetyl]amino]-3,3-dimethyl-butanoyl]-4-hydroxy-N-[[4-(4-methylthiazol-5-yl)phenyl]methyl]pyrrolidine-2-carboxamide] was tested. Which IC50 did it give?
**A.** > 10 µM

**Q.** With `Cc1cnc(Nc2ccc(N3CCN(C(=O)CCOCCC(=O)N[C@H](C(=O)N4C[C@H](O)C[C@H]4C(=O)NCc4ccc(-c5scnc5C)cc4)C(C)(C)C)CC3)cc2)nc1Nc1cccc(S(=O)(=O)NC(C)(C)C)c1` [JA-031, (2S,4R)-1-((S)-2-(3-(3-(4-(4-((4-((3-(N-(tert-Butyl)sulfamoyl)phenyl)amino)-5-methylpyrimidin-2-yl)amino)phenyl)piperazin-1-yl)-3-oxopropoxy)propanamido)-3,3-dimethylbutanoyl)-4-hydroxy-N-(4-(4-methylthiazol-5-yl)benzyl)pyrrolidine-2-carboxamide] as the molecule, how does the IC50 read?
**A.** > 10 µM

**Q.** For `Cc1ncsc1-c1ccc(CNC(=O)[C@@H]2C[C@@H](O)CN2C(=O)[C@@H](NC(=O)CCCCCCCCC(=O)N2CCN(c3ccc(Nc4nc5cccc(-c6ccc(S(C)(=O)=O)cc6)n5n4)cc3)CC2)C(C)(C)C)cc1` [JA-067, (2S,4R)-1-((S)-3,3-Dimethyl-2-(10-(4-(4-((5-(4-(methylsulfonyl)phenyl)-[1,2,4]triazolo[1,5-a]pyridin-2-yl)amino)phenyl)piperazin-1-yl)-10-oxodecanamido)butanoyl)-4-hydroxy-N-(4-(4-methylthiazol-5-yl)benzyl)pyrrolidine-2-carboxamide], which IC50 is on record?
**A.** 3.85 µM

**Q.** With `CS(=O)(=O)c1ccc(-c2cccc3nc(Nc4ccc(N5CCN(C(=O)CCOCCOCCOCCNc6cccc7c6C(=O)N(C6CCC(=O)NC6=O)C7=O)CC5)cc4)nn23)cc1` (centres unmarked) [JA-085, 2-(2,6-Dioxo-piperidin-3-yl)-4-[2-(2-{2-[3-(4-{4-[5-(4-methanesulfonyl-phenyl)-[1,2,4]triazolo[1,5-a]pyridin-2-ylamino]-phenyl}-piperazin-1-yl)-3-oxo-propoxy]-ethoxy}-ethoxy)-ethylamino]-isoindole-1,3-dione] as the molecule, how does the IC50 read?
**A.** 3.95 µM

**Q.** How did the IC50 turn out when `Cc1cnc(Nc2ccc(N3CCN(CC(=O)NCCOCCOCCOCCC(=O)N[C@H](C(=O)N4C[C@H](O)C[C@H]4C(=O)NCc4ccc(-c5scnc5C)cc4)C(C)(C)C)CC3)cc2)nc1Nc1cccc(S(=O)(=O)NC(C)(C)C)c1` [JA-221, (2S,4R)-1-((S)-17-(tert-butyl)-1-(4-(4-((4-((3-(N-(tert-butyl)sulfamoyl)phenyl)amino)-5-methylpyrimidin-2-yl)amino)phenyl)piperazin-1-yl)-2,15-dioxo-6,9,12-trioxa-3,16-diazaoctadecan-18-oyl)-4-hydroxy-N-(4-(4-methylthiazol-5-yl)benzyl)pyrrolidine-2-carboxamide] was run?
**A.** > 10 µM

**Q.** Which IC50 does the source give for `Cc1ncsc1-c1ccc(CNC(=O)[C@@H]2C[C@@H](O)CN2C(=O)[C@@H](NC(=O)CCC(=O)N2CCN(c3ccc(Nc4nc5cccc(-c6ccc(S(C)(=O)=O)cc6)n5n4)cc3)CC2)C(C)(C)C)cc1` [JA-069, (2S,4R)-1-((S)-3,3-Dimethyl-2-(4-(4-(4-((5-(4-(methylsulfonyl)phenyl)-[1,2,4]triazolo[1,5-a]pyridin-2-yl)amino)phenyl)piperazin-1-yl)-4-oxobutanamido)butanoyl)-4-hydroxy-N-(4-(4-methylthiazol-5-yl)benzyl)pyrrolidine-2-carboxamide] here?
**A.** > 10 µM

**Q.** With `Cc1ncsc1-c1ccc(CNC(=O)[C@@H]2C[C@@H](O)CN2C(=O)[C@@H](NC(=O)CCCCC(=O)N2CCN(c3ccc(Nc4nc5cccc(-c6ccc(S(C)(=O)=O)cc6)n5n4)cc3)CC2)C(C)(C)C)cc1` [JA-074, (2S,4R)-1-((S)-3,3-Dimethyl-2-(6-(4-(4-((5-(4-(methylsulfonyl)phenyl)-[1,2,4]triazolo[1,5-a]pyridin-2-yl)amino)phenyl)piperazin-1-yl)-6-oxohexanamido)butanoyl)-4-hydroxy-N-(4-(4-methylthiazol-5-yl)benzyl)pyrrolidine-2-carboxamide] as the molecule, how does the IC50 read?
**A.** > 10 µM

**Q.** Which IC50 does the source give for `CS(=O)(=O)c1ccc(-c2cccc3nc(Nc4ccc(N5CCN(C(=O)CCCCC#Cc6ccc7c(c6)C(=O)N(C6CCC(=O)NC6=O)C7=O)CC5)cc4)nn23)cc1` (centres unmarked) [JA-248, 2-(2,6-Dioxopiperidin-3-yl)-5-(7-(4-(4-((5-(4-(methylsulfonyl)phenyl)-[1,2,4]triazolo[1,5-a]pyridin-2-yl)amino)phenyl)piperazin-1-yl)-7-oxohept-1-yn-1-yl)isoindoline-1,3-dione] here?
**A.** 0.247 µM

**Q.** With `CS(=O)(=O)c1ccc(-c2cccc3nc(Nc4ccc(N5CCN(C(=O)CCCCCCNc6cccc7c6C(=O)N(C6CCC(=O)NC6=O)C7=O)CC5)cc4)nn23)cc1` (centres unmarked) [JA-078, 2-(2,6-Dioxo-piperidin-3-yl)-4-[7-(4-{4-[5-(4-methanesulfonyl-phenyl)-[1,2,4]triazolo[1,5-a]pyridin-2-ylamino]-phenyl}-piperazin-1-yl)-7-oxo-heptylamino]-isoindole-1,3-dione] as the molecule, how does the IC50 read?
**A.** > 10 µM

**Q.** `Cc1cnc(Nc2ccc(N3CCN(CC(=O)NCCOCCOCCOCCOCCOCCC(=O)N[C@H](C(=O)N4C[C@H](O)C[C@H]4C(=O)NCc4ccc(-c5scnc5C)cc4)C(C)(C)C)CC3)cc2)nc1Nc1cccc(S(=O)(=O)NC(C)(C)C)c1` [JA-223, (2S,4R)-1-((S)-23-(tert-butyl)-1-(4-(4-((4-((3-(N-(tert-butyl)sulfamoyl)phenyl)amino)-5-methylpyrimidin-2-yl)amino)phenyl)piperazin-1-yl)-2,21-dioxo-6,9,12,15,18-pentaoxa-3,22-diazatetracosan-24-oyl)-4-hydroxy-N-(4-(4-methylthiazol-5-yl)benzyl)pyrrolidine-2-carboxamide] was tested. Which IC50 did it give?
**A.** 9.38 µM

**Q.** Which IC50 does the source give for `CS(=O)(=O)c1ccc(-c2cccc3nc(Nc4ccc(N5CCN(CC(=O)NCCOCCOCCOCCNc6ccc7c(c6)C(=O)N(C6CCC(=O)NC6=O)C7=O)CC5)cc4)nn23)cc1` (centres unmarked) [JA-209, N-(2-(2-(2-(2-((2-(2,6-Dioxopiperidin-3-yl)-1,3-dioxoisoindolin-5-yl)amino)ethoxy)ethoxy)ethoxy)ethyl)-2-(4-(4-((5-(4-(methylsulfonyl)phenyl)-[1,2,4]triazolo[1,5-a]pyridin-2-yl)amino)phenyl)piperazin-1-yl)acetamide] here?
**A.** > 10 µM

**Q.** `Cc1cnc(Nc2ccc(N3CCN(C(=O)CCOCCOCCOCCOCCNc4ccc5c(c4)C(=O)N(C4CCC(=O)NC4=O)C5=O)CC3)cc2)nc1Nc1cccc(S(=O)(=O)NC(C)(C)C)c1` (centres unmarked) [JA-235, N-(tert-butyl)-3-((2-((4-(4-(1-((2-(2,6-dioxopiperidin-3-yl)-1,3-dioxoisoindolin-5-yl)amino)-3,6,9,12-tetraoxapentadecan-15-oyl)piperazin-1-yl)phenyl)amino)-5-methylpyrimidin-4-yl)amino)benzenesulfonamide] was tested. Which IC50 did it give?
**A.** 0.849 µM

**Q.** Which IC50 does the source give for `CS(=O)(=O)c1ccc(-c2cccc3nc(Nc4ccc(N5CCN(C(=O)CCCCCCc6ccc7c(c6)CN(C6CCC(=O)NC6=O)C7=O)CC5)cc4)nn23)cc1` (centres unmarked) [JA-251, 3-(5-(7-(4-(4-((5-(4-(Methylsulfonyl)phenyl)-[1,2,4]triazolo[1,5-a]pyridin-2-yl)amino)phenyl)piperazin-1-yl)-7-oxoheptyl)-1-oxoisoindolin-2-yl)piperidine-2,6-dione] here?
**A.** 0.337 µM

**Q.** `Cc1ncsc1-c1ccc(CNC(=O)[C@@H]2C[C@@H](O)CN2C(=O)[C@@H](NC(=O)COCCOCCOCC(=O)N2CCN(c3ccc(Nc4nc5cccc(-c6ccc(S(C)(=O)=O)cc6)n5n4)cc3)CC2)C(C)(C)C)cc1` [JA-064, (2S,4R)-1-((S)-2-(tert-Butyl)-14-(4-(4-((5-(4-(methylsulfonyl)phenyl)-[1,2,4]triazolo[1,5-a]pyridin-2-yl)amino)phenyl)piperazin-1-yl)-4,14-dioxo-6,9,12-trioxa-3-azatetradecanoyl)-4-hydroxy-N-(4-(4-methylthiazol-5-yl)benzyl)pyrrolidine-2-carboxamide] was tested. Which IC50 did it give?
**A.** > 10 µM
